From patent US9656984B2, “PI3K/AKT/mTOR inhibitors and pharmaceutical uses thereof” (UNIVERSITE DE RENNES 1, priority 2013, dated 2017)

Tests used:
[1] = system: PI3K/AKT activity (AKT phosphorylation); assay: PI3K/AKT/mTOR pathway inhibitory activity: level of AKT phosphorylation in CEM cells over time; type: cell-based, human; conditions: 10 μM, FIGS. 7 and 8
Procedure: The CEM cell was incubated with 10 μM of each mentioned compound of formula (I) for the indicated times and then cells were lysed and 100 μg of protein was loaded per line and resolved by SDS-PAGE. The levels of AKT phosphorylation (hallmark of PI3K activation) and total AKT (loading control) were analyzed by Western blot and the amount of AKT phosphorylation relative to the total amount of protein AKT was quantified by densitometric analysis, the intensity of each band was scanned and the level of AKT phosphorylation was reported to the amount of whole AKT and the percentage of phosphorylated-AKT was depicted.
(§1) Immunoblots Excepted for immunoprecipitation experiments in which cells were lyzed with RIPA buffer, cells were lyzed for 30 min at 4° C. in Lysis buffer (25 mM HEPES pH 7.4, 1% v/v Triton X-100, 150 mM NaCl, 2 mM EGTA supplemented with a mix of protease inhibitors). Protein concentration was determined by the bicinchoninic acid method (Pierce, Rockford, Ill., USA) according to the manufacturer's protocol. Proteins were resolved by 8, 10 or 12% SDS-PAGE and transferred to a nitrocellulose membrane (GE Healthcare, Buckinghamshire, UK). The membrane was blocked 15 min with TBST (50 mM Tris, 160 mM NaCl, 0.05% v/v Tween 20, pH 7.4) containing 5% w/v dried skimmed milk (TBS™). Primary antibody was incubated overnight at 4° C. in TBS™. The membrane was intensively washed (TBST) and then the peroxydase-labeled anti-mouse IgG1 or IgG2a (CliniSciences, Nanterre, France) was added for 45 min. Proteins were visualized with the enhanced chemiluminescence substrate kit (ECL RevelBIOt®, Ozyme, Saint Quentin en Yvelines, France).

[2] = system: Leukemic T-cell line Jurkat; assay: Cytotoxic effect by MTT assay, Jurkat; type: cell-based; conditions: 24 hours (FIG. 1) or 20 hours (FIG. 6)
Procedure: (§2) Leukemic T-cell lines Jurkat and CEM were incubated for 24 hours (see FIGS. 1, 2, 3, 4 and 5) or for 20 hours (see FIG. 6) with compounds of formula (I) and with compound A, at the indicated concentrations and cell death was assessed using the viability assay MTT, which estimates the metabolic state of the cell.
(§3) Cell viability was assessed using the 3-[4,5-dimethylthiazol-2-yl]-2,5-diphenyltetrazolium bromide (MTT) viability assay (1). In brief, cells (4×10^4 per well) were cultured for 20 h in flat-bottomed 96 well plates with various concentrations of the apoptosis inducer. Then 0.015 ml of MTT (5 mg/ml in PBS) was added to each well and incubated for 4 h at 37° C. Formazan salt precipitats were dissolved by adding 0.115 ml of isopropyl alcohol containing 1% formic acid (v/v), and the absorbance was measured at 570 nm.

[3] = system: Leukemic T-cell line CEM; assay: Cytotoxic effect by MTT assay, CEM; type: cell-based; conditions: 24 hours, FIGS. 2 to 5
Procedure: as §2, §3

[4] = molecular target: mTORC2 (Homo sapiens, UniProt P42345); assay: Immunoblot of AKT serine 473 phosphorylation (target of mTORC2); type: cell-based; parameters: endogenous in cells; conditions: with increasing compound concentrations, FIG. 12A
Procedure: (§4) The inhibition of the phosphorylation level of AKT at serine 473, target of mTORC2, and 4EBP1 (also called Eukaryotic translation initiation factor 4E-binding protein 1) at threonines 37/46, which are targets of mTORC1, by compound 48 (compound 25 linked to biotin) was assessed by immunoblotting. Total AKT and 4EBP1 were added as loading controls.
as §1

[5] = molecular target: mTORC1 (Homo sapiens, UniProt P42345); assay: Immunoblot of 4EBP1 threonines 37/46 phosphorylation (targets of mTORC1); type: cell-based; parameters: endogenous in cells; conditions: with increasing compound concentrations, FIG. 12A
Procedure: as §4, §1

[6] = molecular target: T1, mTOR (Homo sapiens, UniProt P42345); assay: Biotin pull-down with streptavidin-coated beads from CEM cells, mTOR immunoblot; type: binding; conditions: 1 μM, CEM leukemic T cells, FIG. 12B
T1 construct: endogenous in cells; host or cells: CEM leukemic T cells
Procedure: Compounds 25 and 48 (compound 25 linked to biotin) (1 μM) were incubated with CEM leukemic T cells for indicated times. Then cells were lyzed in RIPA buffer and biotin was immunoprecipitated using streptavidin-coated magnetic beads. Beads were washed and the presence of mTOR was analyzed in compound 48-associated complex by Immunoblotting.
CEM cells (10^7 cells) were pre-incubated for indicated times with 1 μM of compound 25 or compound 48, washed with PBS and lysed using RIPA buffer [50 mM Tris pH7.4, 1% NP-40, 0.5% Na-deoxycholate, 0.1% SDS, 150 mM NaCl, 2 mM EDTA, inhibitors of protease and phosphatase (Sigma)].

[7] = system: T47-D (ER-positive) breast tumor cell line; assay: Cell death by MTT assay, T47-D; type: cell-based, human; conditions: 24 hours, mean of four experiments
Procedure: (§5) The ER-positive breast tumor cell lines MCF-7 and T47-D and the HER2 positive breast tumor cell lines MDA-MB-453 and BT474 (also ER-positive) were incubated with the indicated concentration of each mentioned compound of formula (I) for 24 hours and then cell death was assessed using MTT assay.
(§6) For each cell line, the percentage of cell death (mean of four experiments for cell lines MCF-7 and T47-D, and two experiments for cell lines MDA-MB-453 and BT474) is given in view of the increasing concentration of each tested compound of the invention.
as §3

[8] = system: MCF-7 (ER-positive) breast tumor cell line; assay: Cell death by MTT assay, MCF-7; type: cell-based, human; conditions: 24 hours, mean of four experiments
Procedure: as §5, §6, §3

[9] = system: AKT phosphorylation; assay: In cellulo IC50 of AKT phosphorylation in CEM cells (Western blot densitometry); type: cell-based; conditions: Homo sapiens, CCRF-CEM, 2 hours incubation, AKT phosphorylation vs whole AKT, read-out: In vivo IC50
Procedure: CEM cells were incubated for 2 hours with the indicated concentrations of each mentioned compound of formula (I). Cells were then lysed and 100 μg of protein was loaded per line in an SDS-PAGE. Bands from AKT phosphorylation and whole AKT observed by Western blot were scanned and quantified by densitometric analysis. Based on these values, an in cellulo IC50 (half maximal inhibitory concentration) was measured for each compound of formula (I).
as §1

[10] = system: BT474 (ER-positive/HER2-positive) breast tumor cell line; assay: Cell death by MTT assay, BT474; type: cell-based, human; conditions: 24 hours, mean of two experiments
Procedure: as §5, §6, §3

[11] = system: MDA-MB-453 (HER2 positive) breast tumor cell line; assay: Cell death by MTT assay, MDA-MB-453; type: cell-based, human; conditions: 24 hours, mean of two experiments
Procedure: as §5, §6, §3

SMILES: CCOc1cccc2c1OC(c1ccc(F)cc1)C([N+](=O)[O-])=C2 (centres unmarked) [A]
- inhibitory activity on PI3K/AKT (level of AKT phosphorylation) [1]: very weak inhibitory activity
- percentage of cell death (cytotoxic effect) [2]: lower percentage of cell death
- percentage of cell death (cytotoxic effect) [3]: lower percentage of cell death

SMILES: O=C(CCCCC1SC[C@@H]2NC(=O)N[C@H]12)NCCCOc1cc(Br)c2c(c1)C=C([N+](=O)[O-])C(c1ccc(Br)cc1)O2 (some centres unmarked) [Compound 48]
- phosphorylation of AKT at serine 473 [4]: decreases
- phosphorylation of 4EBP1 at threonines 37/46 [5]: decreases
- binding to mTOR [6]: binds to mTOR

SMILES: COC(=O)C1=Cc2cc(Br)ccc2OC1c1ccc(Br)cc1 (centres unmarked) [Compound 55, Methyl-6-Bromo-2-(4-bromophenyl)-2H-chromene-3-carboxylate]
- melting point: 118 to 120 °C

SMILES: ON=CC1=Cc2cc(Br)ccc2OC1c1ccc(Br)cc1 (centres unmarked) [Compound 59, 6-Bromo-2-(4-bromophenyl)-2H-chromene-3-carbaldehyde oxime]
- melting point: 158 to 160 °C

SMILES: N#CC1=Cc2cc(Br)ccc2OC1c1ccc(Br)cc1 (centres unmarked) [Compound 61, 6-Bromo-2-(4-bromophenyl)-2H-chromene-3-carbonitrile]
- melting point: 136 to 138 °C

SMILES: N#CC1=Cc2cc(Br)cc(Br)c2OC1c1ccc(Br)cc1 (centres unmarked) [Compound 62, 6,8-Dibromo-2-(4-bromophenyl)-2H-chromene-3-carbonitrile]
- melting point: 196 to 198 °C

SMILES: O=c1cc(N2CCOCC2)oc2c(-c3ccccc3)cccc12 [LY294002, reference compound]
- percentage of cell death ([7]; 6.25 μM): 32.33%
- percentage of cell death ([7]; 12.5 μM): 40.42%
- percentage of cell death ([7]; 25 μM): 50.01%
- percentage of cell death ([7]; 50 μM): 55.69%
- percentage of cell death ([8]; MCF-7, 6.25 μM): 11.53%
- percentage of cell death ([8]; MCF-7, 12.5 μM): 11.067%
- percentage of cell death ([8]; MCF-7, 25 μM): 13.51%
- percentage of cell death ([8]; MCF-7, 50 μM): 18.89%
- IC50 [9]: > 10 µM
- percentage of cell death ([10]; BT474, 6.25 μM): 35.35%
- percentage of cell death ([10]; BT474, 12.5 μM): 48.7%
- percentage of cell death ([10]; BT474, 25 μM): 62.79%
- percentage of cell death ([10]; BT474, 50 μM): 77.2%
- percentage of cell death ([11]; MDA-MB-453, 0.390625 μM): 0%
- percentage of cell death ([11]; MDA-MB-453, 0.78125 μM): 0%
- percentage of cell death ([11]; MDA-MB-453, 1.5625 μM): 0%
- percentage of cell death ([11]; MDA-MB-453, 3.125 μM): 0%
- percentage of cell death ([11]; MDA-MB-453, 6.25 μM): 17.45%
- percentage of cell death ([11]; MDA-MB-453, 12.5 μM): 53.74%
- percentage of cell death ([11]; MDA-MB-453, 25 μM): 76.61%
- percentage of cell death ([11]; MDA-MB-453, 50 μM): 86.55%
- percentage of cell death (cytotoxic effect) [3]: much lower cell death percentage
